Experimental data reported in US20260365670A1, “EGFR INHIBITORS AND USES THEREOF” (DIZAL (JIANGSU) PHARMACEUTICAL CO., LTD., priority 2022, published 2026).
Like-named read-outs stand apart in the source and are kept apart here.

Legend:
EGFR Exon19Del = molecular target: T1, EGFR Exon19Del (Homo sapiens, UniProt P00533, DEL746-750); assay: Inhibition of EGFR Exon19Del biochemical enzymatic activity (HTRF); conditions: EGFR Del19, 1 mM ATP, 1 h, room temperature, read-out: IC50 @Del19
T1 construct: purchased Carna Bio
Procedure, shortened: (§1)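 Phosphorylation of TK Substrate-biotin (1 μM) was measured at 1 mM ATP over a 1 h room-temperature incubation with serially varied compound. Detection was by HTRF ratio and analysis by 4PL fit to IC50.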

A-431 = assay: Cell proliferation GI50, A-431 cells (Table 6); type: cell-based
[1] = molecular target: T2, EGFR[T790M/C797S/d746-750] (Homo sapiens, UniProt P00533, C797S/DEL746-750/T790M); assay: Inhibition of EGFR[T790M/C797S/d746-750] biochemical enzymatic activity (HTRF); conditions: EGFR T790M-C797S-Del19, 1 mM ATP, 1 h, room temperature, read-out: IC50 (nM) @T790M - C797S - Del19
T2 construct: purchased Carna Bio
Procedure, shortened: as §1

PC-9 = assay: Cell proliferation assay, PC-9 cells (CellTiter-Glo, 72 hours); type: cell-based; conditions: PC9 cells, CellTiter-Glo, read-out: PC9 GI50
Procedure, shortened: (§2)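 GI50 is the concentration giving 50% proliferation inhibition. Growth for this was normalised to a baseline viability reading taken when compound was added, and to DMSO wells. PC-9 (500 cells/well) and mutant-EGFR Ba/F3 (5000 cells/well) are treated after overnight seeding in RPMI1640-based medium.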

EGFR[T790M/C797S/L858R] = molecular target: T3, EGFR[T790M/C797S/L858R] (Homo sapiens, UniProt P00533, C797S/L858R/T790M); assay: Inhibition of EGFR[T790M/C797S/L858R] biochemical enzymatic activity (HTRF); conditions: EGFR T790M-C797S-L858R, 1 mM ATP, 1 h, room temperature, read-out: IC50 (nM) @T790M- C797S - L858R
T3 construct: purchased Carna Bio
Procedure, shortened: as §1

EGFR L858R/T790M = molecular target: T4, EGFR L858R/T790M (Homo sapiens, UniProt P00533, L858R/T790M); assay: Inhibition of EGFR L858R/T790M biochemical enzymatic activity (HTRF); conditions: EGFR L858R-T790M, 1 mM ATP, 1 h, room temperature, read-out: IC50 (nM) @L858R-T790M
T4 construct: purchased Carna Bio
Procedure, shortened: as §1

[2] = system: Ba/F3 cells expressing EGFR mutations; assay: Cell proliferation assay, Ba/F3 cells expressing EGFR mutations (CellTiter-Glo, 72 hours); type: cell-based; conditions: CellTiter-Glo
Procedure, shortened: as §2

EGFR wild type = molecular target: T5, EGFR wild type (Homo sapiens, UniProt P00533); assay: Inhibition of EGFR wild type biochemical enzymatic activity (HTRF); conditions: EGFR WT, 1 mM ATP, 1 h, room temperature, read-out: IC50 (nM) @WT
T5 construct: purchased Carna Bio
Procedure, shortened: as §1

EGFR L858R = molecular target: T6, EGFR L858R (Homo sapiens, UniProt P00533, L858R); assay: Inhibition of EGFR L858R biochemical enzymatic activity (HTRF); conditions: 1 mM ATP, 1 h, room temperature, read-out: IC50 (nM) @L858R
T6 construct: purchased Carna Bio
Procedure, shortened: as §1

EGFR (d746-750 C797S) = molecular target: T7, EGFR (d746-750 C797S) (Homo sapiens, UniProt P00533, C797S/DEL746-750); assay: Inhibition of EGFR (d746-750 C797S) biochemical enzymatic activity (HTRF); conditions: EGFR Del19-C797S, 1 mM ATP, 1 h, room temperature, read-out: IC50 (nM) @Del19-C797S
T7 construct: purchased signalchem
Procedure, shortened: as §1

EGFR (C797S L858R) = molecular target: T8, EGFR (C797S L858R) (Homo sapiens, UniProt P00533, C797S/L858R); assay: Inhibition of EGFR (C797S L858R) biochemical enzymatic activity (HTRF); conditions: EGFR L858-C797S, 1 mM ATP, 1 h, room temperature, read-out: IC50 (nM) @L858-C797S
T8 construct: purchased signalchem
Procedure, shortened: as §1

EGFR Exon19Del/T790M = molecular target: T9, EGFR Exon19Del/T790M (Homo sapiens, UniProt P00533, DEL746-750/T790M); assay: Inhibition of EGFR Exon19Del/T790M biochemical enzymatic activity (HTRF); conditions: EGFR Del19-T790M, 1 mM ATP, 1 h, room temperature, read-out: IC50 (nM) @Del19-T790M
T9 construct: purchased Carna Bio
Procedure, shortened: as §1

[3] = Homo sapiens, A-431, A-431 cells
[4] = Mus musculus, BaF3, 72 h, BaF3 cells, EGFR DEL19-C797S, read-out: DEL19-C797S/BaF3 GI50
[5] = Mus musculus, BaF3, 72 h, BaF3 cells, EGFR DEL19-T790-C797S, read-out: DEL19-T790-C797S/BaF3 GI50
[6] = Mus musculus, BaF3, 72 h, BaF3 cells, EGFR L858R, read-out: L858R/BaF3 GI50
[7] = Mus musculus, BaF3, 72 h, BaF3 cells, EGFR L858R-C797S, read-out: L858R-C797S/BaF3 GI50
[8] = Mus musculus, BaF3, 72 h, BaF3 cells, EGFR L858R-T790-C797S, read-out: L858R-T790-C797S/BaF3 GI50
[9] = Mus musculus, BaF3, 72 h, BaF3 cells, EGFR L858R-T790M, read-out: L858R-T790M/BaF3 GI50
[10] = Mus musculus, BaF3, 72 h, EGFR DEL19-T790M, read-out: DEL19-T790M GI50
[11] = BaF3 cells, EGFR DEL19-C797S, read-out: DEL19-C797S/BaF3 GI50
[12] = BaF3 cells, EGFR DEL19-T790-C797S, read-out: DEL19-T790-C797S/BaF3 GI50
[13] = BaF3 cells, EGFR L858R, read-out: L858R/BaF3 GI50
[14] = BaF3 cells, EGFR L858R-C797S, read-out: L858R-C797S/BaF3 GI50
[15] = BaF3 cells, EGFR L858R-T790-C797S, read-out: L858R-T790-C797S/BaF3 GI50
[16] = BaF3 cells, EGFR L858R-T790M, read-out: L858R-T790M/BaF3 GI50
[17] = EGFR DEL19-T790M, read-out: DEL19-T790M GI50

T3 sequence (P00533 25-1210 T790M/C797S/L858R): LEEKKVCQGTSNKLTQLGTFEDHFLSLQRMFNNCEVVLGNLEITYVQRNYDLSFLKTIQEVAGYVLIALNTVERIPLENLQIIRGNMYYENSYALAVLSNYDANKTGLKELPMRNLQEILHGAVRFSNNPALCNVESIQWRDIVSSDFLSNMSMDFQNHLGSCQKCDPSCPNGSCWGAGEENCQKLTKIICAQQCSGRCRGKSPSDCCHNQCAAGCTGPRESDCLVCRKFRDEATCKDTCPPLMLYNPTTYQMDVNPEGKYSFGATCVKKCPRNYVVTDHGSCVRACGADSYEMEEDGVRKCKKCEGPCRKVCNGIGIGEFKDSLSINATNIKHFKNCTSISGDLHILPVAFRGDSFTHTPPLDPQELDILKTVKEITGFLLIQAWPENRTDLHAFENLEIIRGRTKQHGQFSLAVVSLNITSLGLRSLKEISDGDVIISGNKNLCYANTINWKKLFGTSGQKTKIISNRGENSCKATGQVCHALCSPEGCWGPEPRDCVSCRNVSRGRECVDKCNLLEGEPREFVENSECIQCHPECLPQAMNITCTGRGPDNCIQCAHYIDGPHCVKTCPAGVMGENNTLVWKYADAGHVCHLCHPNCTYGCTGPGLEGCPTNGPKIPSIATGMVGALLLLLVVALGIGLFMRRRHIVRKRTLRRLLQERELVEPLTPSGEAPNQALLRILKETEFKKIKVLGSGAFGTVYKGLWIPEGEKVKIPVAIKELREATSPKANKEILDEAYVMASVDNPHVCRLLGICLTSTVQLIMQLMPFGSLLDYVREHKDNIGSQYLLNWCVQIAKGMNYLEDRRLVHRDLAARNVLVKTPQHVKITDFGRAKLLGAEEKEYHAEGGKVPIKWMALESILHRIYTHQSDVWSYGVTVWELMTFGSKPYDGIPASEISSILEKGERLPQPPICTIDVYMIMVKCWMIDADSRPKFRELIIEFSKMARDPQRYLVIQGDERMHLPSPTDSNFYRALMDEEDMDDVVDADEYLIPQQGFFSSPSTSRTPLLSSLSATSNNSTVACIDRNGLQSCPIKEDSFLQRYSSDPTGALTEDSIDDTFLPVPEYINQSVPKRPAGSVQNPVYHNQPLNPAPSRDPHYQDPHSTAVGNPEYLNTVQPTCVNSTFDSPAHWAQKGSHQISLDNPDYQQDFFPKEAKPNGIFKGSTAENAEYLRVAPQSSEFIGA
T8 sequence (P00533 25-1210 C797S/L858R): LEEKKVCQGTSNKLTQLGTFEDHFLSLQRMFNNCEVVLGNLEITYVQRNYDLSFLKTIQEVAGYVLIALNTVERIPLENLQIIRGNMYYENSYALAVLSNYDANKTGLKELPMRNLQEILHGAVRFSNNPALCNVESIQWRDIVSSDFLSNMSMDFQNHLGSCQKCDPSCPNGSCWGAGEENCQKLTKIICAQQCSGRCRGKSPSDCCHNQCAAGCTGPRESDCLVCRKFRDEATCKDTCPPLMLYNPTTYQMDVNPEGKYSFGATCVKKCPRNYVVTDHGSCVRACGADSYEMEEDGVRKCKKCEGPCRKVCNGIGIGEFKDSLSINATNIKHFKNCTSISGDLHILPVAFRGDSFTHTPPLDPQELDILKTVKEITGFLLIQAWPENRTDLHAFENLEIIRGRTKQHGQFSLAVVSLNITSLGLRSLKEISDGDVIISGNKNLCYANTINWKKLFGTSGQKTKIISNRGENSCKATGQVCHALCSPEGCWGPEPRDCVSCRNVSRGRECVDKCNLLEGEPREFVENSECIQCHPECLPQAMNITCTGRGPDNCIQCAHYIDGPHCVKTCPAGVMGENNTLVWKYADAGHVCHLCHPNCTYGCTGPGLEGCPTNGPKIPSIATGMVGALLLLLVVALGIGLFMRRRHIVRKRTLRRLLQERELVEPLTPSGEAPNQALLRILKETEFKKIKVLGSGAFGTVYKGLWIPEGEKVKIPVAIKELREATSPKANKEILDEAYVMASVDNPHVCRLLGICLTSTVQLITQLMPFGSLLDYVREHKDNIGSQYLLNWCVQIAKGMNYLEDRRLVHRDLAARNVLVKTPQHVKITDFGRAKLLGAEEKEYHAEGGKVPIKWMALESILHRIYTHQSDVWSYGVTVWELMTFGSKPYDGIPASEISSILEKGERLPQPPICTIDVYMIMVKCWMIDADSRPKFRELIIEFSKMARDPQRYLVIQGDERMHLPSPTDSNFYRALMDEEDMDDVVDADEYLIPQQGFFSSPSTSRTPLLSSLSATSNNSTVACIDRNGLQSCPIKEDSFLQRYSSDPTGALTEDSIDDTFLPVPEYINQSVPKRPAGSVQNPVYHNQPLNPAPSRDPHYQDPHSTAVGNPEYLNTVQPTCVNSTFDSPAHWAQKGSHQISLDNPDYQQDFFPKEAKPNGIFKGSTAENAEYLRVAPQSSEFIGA
T2 sequence (P00533 with tags, fused parts or gaps DEL746-750/T790M/C797S limits assumed): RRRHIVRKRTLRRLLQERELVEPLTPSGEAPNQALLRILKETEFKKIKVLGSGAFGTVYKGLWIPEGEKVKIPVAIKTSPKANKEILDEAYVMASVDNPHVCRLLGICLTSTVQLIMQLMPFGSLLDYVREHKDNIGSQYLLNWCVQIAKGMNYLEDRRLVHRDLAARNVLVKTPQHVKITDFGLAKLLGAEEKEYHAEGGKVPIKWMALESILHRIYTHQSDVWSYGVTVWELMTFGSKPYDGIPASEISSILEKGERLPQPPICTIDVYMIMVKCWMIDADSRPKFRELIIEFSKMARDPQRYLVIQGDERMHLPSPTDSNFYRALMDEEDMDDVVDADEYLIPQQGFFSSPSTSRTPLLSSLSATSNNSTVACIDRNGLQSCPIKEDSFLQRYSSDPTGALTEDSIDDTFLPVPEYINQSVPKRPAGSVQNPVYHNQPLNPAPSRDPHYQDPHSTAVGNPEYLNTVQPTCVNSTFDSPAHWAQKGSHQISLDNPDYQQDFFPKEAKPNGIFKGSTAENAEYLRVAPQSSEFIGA
T1 sequence (P00533 with tags, fused parts or gaps DEL746-750 limits assumed): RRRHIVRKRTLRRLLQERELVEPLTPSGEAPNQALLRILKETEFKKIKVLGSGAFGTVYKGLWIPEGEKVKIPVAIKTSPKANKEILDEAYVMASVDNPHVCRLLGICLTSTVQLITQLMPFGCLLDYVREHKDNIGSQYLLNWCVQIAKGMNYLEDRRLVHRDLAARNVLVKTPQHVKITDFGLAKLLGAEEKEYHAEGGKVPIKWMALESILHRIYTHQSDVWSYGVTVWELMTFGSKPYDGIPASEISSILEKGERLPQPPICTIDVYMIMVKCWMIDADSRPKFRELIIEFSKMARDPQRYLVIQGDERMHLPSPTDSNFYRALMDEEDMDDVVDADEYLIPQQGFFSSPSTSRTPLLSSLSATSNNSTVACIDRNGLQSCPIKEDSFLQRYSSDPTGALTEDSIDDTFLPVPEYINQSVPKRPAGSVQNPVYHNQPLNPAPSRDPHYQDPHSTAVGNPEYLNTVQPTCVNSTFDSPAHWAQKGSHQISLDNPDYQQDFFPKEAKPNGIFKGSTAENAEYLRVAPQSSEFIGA
T9 sequence (P00533 with tags, fused parts or gaps DEL746-750/T790M limits assumed): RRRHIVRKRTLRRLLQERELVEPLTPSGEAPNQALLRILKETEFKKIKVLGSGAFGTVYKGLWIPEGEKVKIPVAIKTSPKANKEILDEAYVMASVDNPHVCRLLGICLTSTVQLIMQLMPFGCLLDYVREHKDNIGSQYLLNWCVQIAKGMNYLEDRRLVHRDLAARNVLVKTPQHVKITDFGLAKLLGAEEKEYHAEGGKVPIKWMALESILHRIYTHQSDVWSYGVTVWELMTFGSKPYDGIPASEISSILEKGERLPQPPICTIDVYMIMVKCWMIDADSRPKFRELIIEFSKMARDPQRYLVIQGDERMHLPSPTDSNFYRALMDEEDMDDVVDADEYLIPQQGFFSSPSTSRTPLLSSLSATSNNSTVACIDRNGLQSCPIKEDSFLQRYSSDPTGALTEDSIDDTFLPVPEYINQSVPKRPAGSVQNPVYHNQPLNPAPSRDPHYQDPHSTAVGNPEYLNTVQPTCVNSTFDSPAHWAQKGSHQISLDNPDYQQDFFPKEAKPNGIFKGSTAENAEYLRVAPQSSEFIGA
T7 sequence (P00533 with tags, fused parts or gaps DEL746-750/C797S limits assumed): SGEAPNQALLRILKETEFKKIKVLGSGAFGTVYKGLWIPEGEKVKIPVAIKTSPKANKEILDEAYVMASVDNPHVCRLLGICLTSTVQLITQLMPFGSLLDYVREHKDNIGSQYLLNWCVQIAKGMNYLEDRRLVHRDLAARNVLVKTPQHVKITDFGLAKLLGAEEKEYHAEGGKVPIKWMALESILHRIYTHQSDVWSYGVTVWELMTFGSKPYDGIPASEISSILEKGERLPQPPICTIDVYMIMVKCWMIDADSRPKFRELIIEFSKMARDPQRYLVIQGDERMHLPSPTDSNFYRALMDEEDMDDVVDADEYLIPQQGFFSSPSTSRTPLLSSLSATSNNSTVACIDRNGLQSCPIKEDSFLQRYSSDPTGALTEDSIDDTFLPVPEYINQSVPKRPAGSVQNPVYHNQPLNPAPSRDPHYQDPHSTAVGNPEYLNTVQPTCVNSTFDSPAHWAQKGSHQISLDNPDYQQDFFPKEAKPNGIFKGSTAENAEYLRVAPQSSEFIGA

IC50 (EGFR Exon19Del) [nM] | GI50 (A-431; [3]) [nM] | IC50 [1] [nM] | GI50 (PC-9; Homo sapiens, PC-9, 72 h) [nM] | IC50 (EGFR[T790M/C797S/L858R]) [nM] | IC50 (EGFR L858R/T790M) [nM] | GI50 [2, 4] [nM] | GI50 [2, 5] [nM] | GI50 [2, 6] [nM] | GI50 [2, 7] [nM] | GI50 [2, 8] [nM] | GI50 [2, 9] [nM] | GI50 [2, 10] [nM] | IC50 (EGFR wild type) [nM] | IC50 (EGFR L858R) [nM] | IC50 (EGFR (d746-750 C797S)) [nM] | IC50 (EGFR (C797S L858R)) [nM] | IC50 (EGFR Exon19Del/T790M) [nM] | SMILES | further results
118 | 1910 | 31 | 245 | 10 | 213 | 32 | 104 | 192 | 188 | 228 | 288 | 153 | > 5000 | 3040 | 41 | 887 | 31 | C[C@@H]1CCCOc2c(cnn2C)-c2cc(cn(C)c2=O)C(=O)Nc2nc3ccc(N4CCN(C(=O)OC(C)(C)C)CC4)cc3n2C1 [Example A54] | –
3.7 | 1280 | 4.4 | 51 | 7.2 | 8.4 | 4.6 | 25 | 26 | 31 | 29 | 52 | 36 | 103 | 16 | 1.8 | 8.4 | 3.7 | C[C@@H]1CCCOc2c(cnn2C)-c2cc(cn(C)c2=O)C(=O)Nc2nc3ccc(N4CCNCC4)cc3n2C1 [Example A55] | –
9.1 | 436 | 16 | 52 | 19 | 32 | 3.4 | 11 | 12 | 12 | 10 | 26 | 17 | 501 | 35 | 5.5 | 22 | 17 | C[C@@H]1CCCOc2c(cnn2C)-c2cc(cn(C)c2=O)C(=O)Nc2nc3ccc(N4CC5(CCN(C)CC5(F)F)C4)cc3n2C1 [Example A56] | –
189 | 8300 | 65 | 194 | > 5000 | 4530 | 64 | 534 | 790 | 474 | 716 | 356 | 612 | > 5000 | > 5000 | 175 | 2650 | 112 | C[C@@H]1CCCNc2c(cnn2C)-c2cc(cn(C)c2=O)C(=O)Nc2nc3ccc(N4CCN(C)CC4)cc3n2C1 [Example A57] | –
9.2 | 1750 | 15 | 325 | 22 | 34 | 2 | 28 | 29 | 20 | 37 | 20 | 20 | 220 | 26 | 4.9 | 19 | 16 | C[C@@H]1CCCOc2c(cnn2C)-c2cc(cn(C)c2=O)C(=O)Nc2nc3ccc(N4CC(F)(CN(C)C)C4)cc3n2C1 [Example A58] | –
202 | 1140 | 11 | 295 | 807 | 2610 | 32 | 75 | 201 | 222 | 160 | 964 | 140 | > 5000 | > 5000 | 140 | 4720 | 11 | Cn1ncc2c1OCCN1CC3CCC(C3)(C1)n1c(nc3cc(Br)ccc31)NC(=O)c1cc-2c(=O)n(C)c1 (stereo not drawn) [Example A59, 6-Bromo-15,21-dimethyl-23-oxa-2,9,11,15,20,21,26-heptaazaheptacyclo[24.4.1.1^{1,28}.1^{13,17}.0^{2,10}.0^{3,8}.0^{18,22}]tritriaconta-3,5,7,9,13,17(33),18(22),19-octaene-12,16-dione] | –
276 | – | 117 | – | > 5000 | > 5000 | – | – | – | – | – | – | – | > 5000 | > 5000 | 196 | > 5000 | 141 | CN1CCN(c2ccc3c(c2)nc2n3C34CCC(CN(CCOc5c(cnn5C)-c5cc(cn(C)c5=O)C(=O)N2)C3)C4)CC1 (stereo not drawn) [Example A60A, 15,21-dimethyl-6-(4-methylpiperazin-1-yl)-23-oxa-2,9,11,15,20,21,26-heptaazaheptacyclo[24.4.1.1^{1,28}.1^{13,17}.0^{2,10}.0^{3,8}.0^{18,22}]tritriaconta-3,5,7,9,13,17(33),18(22),19-octaene-12,16-dione] | GI50 (A-431; A-431 cells): 6550 nM; GI50 (PC-9): 633 nM; GI50 [2, 11]: 96 nM; GI50 [2, 12]: 166 nM; GI50 [2, 13]: 315 nM; GI50 [2, 14]: 519 nM; GI50 [2, 15]: 403 nM; GI50 [2, 16]: 1400 nM; GI50 [2, 17]: 285 nM
3.2 | – | 0.81 | – | 44 | 49 | – | – | – | – | – | – | – | 4480 | 135 | 1.7 | 65 | 0.82 | CN1CCN(c2ccc3c(c2)nc2n3C34CCC(CN(CCOc5c(cnn5C)-c5cc(cn(C)c5=O)C(=O)N2)C3)C4)CC1 (stereo not drawn) [Example A60B, 15,21-dimethyl-6-(4-methylpiperazin-1-yl)-23-oxa-2,9,11,15,20,21,26-heptaazaheptacyclo[24.4.1.1^{1,28}.1^{13,17}.0^{2,10}.0^{3,8}.0^{18,22}]tritriaconta-3,5,7,9,13,17(33),18(22),19-octaene-12,16-dione] | GI50 (A-431; A-431 cells): 1340 nM; GI50 (PC-9): 15 nM; GI50 [2, 11]: 1.4 nM; GI50 [2, 12]: 4.4 nM; GI50 [2, 13]: 21 nM; GI50 [2, 14]: 15 nM; GI50 [2, 15]: 8.4 nM; GI50 [2, 16]: 53 nM; GI50 [2, 17]: 6.9 nM
